Reference: patent US20250345340A1, “METHODS FOR THE PREVENTION AND TREATEMENT OF POST-OPERATIVE ABDOMINAL ADHESIONS” (UNIVERSITY OF ROCHESTER, priority 2024, published 2025)
Entries after “also recorded” stand apart in the source; their conditions may differ.

Tests used:
[1] = tested on: post-operative abdominal adhesions; assay: Murine abdominal adhesion surgery model (cecum and abdominal wall abrasion, silk sutures, starch); assay type: in vivo, C57Bl/6J mice
Description: Murine Abdominal Adhesion Surgery: Mature adult (16-20-week-old) C57Bl/6J male and female mice underwent abdominal surgery to induce adhesions consistent with those observed postoperatively in clinical settings. Briefly, following sedation, a vertical midline laparotomy incision, extending from the xyphoid process to just above the bladder (˜4 cm), is made through the abdominal skin and musculature. The cecum is identified and eviscerated, followed by gentle abrasion with sterile 100-grit sandpaper for 30-60 seconds. Hemostasis is ensured and the cecum is then returned to the abdominal cavity. The abdominal wall is then abraded with sterile 100-grit sandpaper, followed by placement of two-four 4-0 silk sutures, which are placed into the abdominal wall. The intestines are then irrigated with warmed sterile saline, and hemostasis is confirmed. A small pinch of sterile autoclaved rice starch is then sprinkled on the cecum and abdominal sidewall. The laparotomy is closed with absorbable, interrupted sutures used to reapproximate the fascia and followed by sutures to close the skin. The skin is closed with skin adhesive.
Scoring of gross adhesion formation: At time of harvest, digital photographic images will be taken of the abdominal cavity of each mouse, with images standardized to a lateral reflection of abdominal wall prior to manipulation of intra-abdominal contents. These images are then curated in a Research Electronic Data Capture (RedCap)-based survey for blinded scoring. Adhesions are scored from 0-5: with ‘0’ indicating no adhesions; 1: a single thin, filmy adhesion; 2: more than one filmy adhesion; 3: one thick adhesion with focal attachment (+thin filmy adhesions); 4: one thick adhesion with broad planar attachment (+thin filmy adhesions); and 5: >1 thick adhesion with broad planar attachment, or >1 thick vascular adhesion with planar attachment (+thin filmy adhesions). Images are scored by at least 5 surgeons trained on the scoring process, with the mean of these scores reported for each mouse.
Histological assessment of adhesions and ileal smooth muscle hypertrophy: Following digital image capture, the area of adhesion between the abdominal wall and bowel (or other organs), including any bowel: bowel adhesions is isolated, fixed in 10% neutral buffered formalin, and processed for paraffin histology. In cases of adhesion absence, the abdominal wall and cecum are harvested and sectioned separately. Five-micron transverse sections are cut through the tissue. To ensure accurate quantification of adhesions, tissue sections are collected through multiple depths through the tissue. […] Adhesion extent (length and cross-sectional area) along both the abdominal wall/cecal surface and between organs are quantified from H&E images by ≥2 blinded observers. […]
At harvest, the study took pictures of the peritoneal cavity, which were scored by 4 blinded, board certified surgeons adhesion scores ranged from 0 (none) to 5 (dense, vascular, adhesions).
The study chose the area of highest visible fibrosis and adhesion density. […] Adhesions were then measured in micrometers. Length of adhesions between the bowel to abdominal wall and bowel to bowel were measured. The total adhesion density (excluding abdominal wall fibrosis) was then measured by cross section. […]

lung fibroblasts = conditions: cited from earlier work

Nc1nc(NCc2ccccc2)nc(-c2ccccc2CO)n1 [ogerin]
length of adhesions between the bowel and abdominal wall and bowel to bowel ([1]; histology, POD10, vs control): reduction in length of adhesions
overall adhesion cross section (total adhesion burden by area) ([1]; histology, POD10, vs control): significantly lower; also recorded: reduces total adhesion burden
clinical adhesion score (0-5, blinded surgeons) ([1]; ogerin injected POD 0-5, harvest POD10, vs vehicle): reduces clinical adhesion score; also recorded: significantly lower
adhesion formation (gross) ([1]; ogerin injected POD 0-5, harvest POD10, vs vehicle DMSO:Saline 60:40): blunts adhesion formation; also recorded: substantial decrease in adhesion formation
mice demonstrating a complete lack of adhesion formation ([1]; ogerin injected POD 0-5, harvest POD10, all vehicle mice formed robust adhesions): 3 out of 4
TGF-b-induced myofibroblast differentiation (lung fibroblasts): blunts
reversion to a basal fibroblast phenotype following TGF-β-induced myofibroblast differentiation (lung fibroblasts): can promote reversion
